Laboratory results reported in the AptaBench aptamer set (doi:10.1093/nar/gkaf219).

Key:
Settings in all cases: 10 mM Tris-HCl, pH 7.4
[1] = test system: DNA aptamer or structured DNA GGGACGACGCGTACCTGTGGTAGTTGTACGTCGTTCAAGTCGTCCC
[2] = test system: DNA aptamer or structured DNA GGGACGACGGATTGCGCTTGCTAACGCCGTGTAGAGTCGTCGTCCC
[3] = test system: DNA aptamer or structured DNA GGGACGACGGGGGGAGTTTGTTTGTGTGGGAGGGTCCAGTCGTCCC
[4] = test system: DNA aptamer or structured DNA GGGACGACGCGTACCTGTGGTAGTCGTACGTCGTTCAAGTCGTCCC
[5] = test system: DNA aptamer or structured DNA GGGACGACATGGGATACCAGAGTCCTGGGATGTGGTGTGTCGTCCC
[6] = test system: DNA aptamer or structured DNA GGGACGACGGGATGTGGTGTCAGTCATGATGGGATCAAGTCGTCCC
Wherever binding call is given: call rule not given here.

Question: How did the binding call [1] turn out when `Cc1nnc2n1-c1ccc(Cl)cc1C(c1ccccc1)=NC2` was run?
Answer: Its binding call is “no binding”.

Question: For `Cn1c(=O)c2c(ncn2C)n(C)c1=O`, which binding call [2] is on record?
Answer: Its binding call is “no binding”.

Question: What about the binding call [3] of the same compound?
Answer: Its binding call is “binds”.

Question: With `CN(C)CCOC(c1ccccc1)c1ccccc1` as the compound, how does the binding call [2] read?
Answer: Its binding call is “no binding”.

Question: How did the binding call [3] turn out when `OC[C@@H](O)[C@@H](O)[C@H](O)[C@H](O)CO` was run?
Answer: The binding call was “no binding”.

Question: `c1ccc([C@H]2CN3CCSC3=N2)cc1` was tested. Which binding call [3] did it give?
Answer: The binding call was “no binding”.

Question: What about the binding call [1] of the same compound?
Answer: Its binding call is “no binding”.

Question: How did the binding call [1] turn out when `O=C1CC[C@@]2(O)[C@H]3Cc4ccc(O)c5c4[C@@]2(CCN3CC2CC2)[C@H]1O5` was run?
Answer: The binding call was “no binding”.

Question: And the binding call [4]?
Answer: The binding call was “no binding”.

Question: With `CCN(CC)CCOC(=O)c1ccc(N)cc1` as the compound, how does the binding call [4] read?
Answer: Its binding call is “no binding”.

Question: With `COc1ccc2c3c1O[C@H]1C(=O)CC[C@@]4(O)[C@@H](C2)N(C)CC[C@]314` as the compound, how does the Kd [2] read?
Answer: The Kd was 2.16 µM.

Question: What about the Kd [3] of the same compound?
Answer: The Kd was 1.75 µM.

Question: What about the Kd [5] of the same compound?
Answer: The Kd was 2.77 µM.

Question: What about the Kd [6] of the same compound?
Answer: The Kd was 3.65 µM.

Question: With `CC(=O)Nc1ccc(O)cc1` as the compound, how does the binding call [3] read?
Answer: The binding call was “binds”.

Question: And the binding call [6]?
Answer: The binding call was “no binding”.

Question: What about the binding call [4] of the same compound?
Answer: The binding call was “no binding”.

Question: For `C=CCN1CC[C@]23c4c5ccc(O)c4O[C@H]2C(=O)CC[C@@]3(O)[C@H]1C5`, which binding call [1] is on record?
Answer: Its binding call is “no binding”.

Question: What about the binding call [5] of the same compound?
Answer: The binding call was “no binding”.

Question: What about the binding call [4] of the same compound?
Answer: Its binding call is “no binding”.

Question: How did the binding call [2] turn out when `CN1C(=O)CN=C(c2ccccc2)c2cc(Cl)ccc21` was run?
Answer: The binding call was “no binding”.

Question: What about the binding call [5] of the same compound?
Answer: The binding call was “no binding”.

Question: `CC(=O)Oc1ccc2c3c1O[C@H]1[C@@H](OC(C)=O)C=C[C@H]4[C@@H](C2)N(C)CC[C@@]341` was tested. Which Kd [1] did it give?
Answer: Its Kd is 4.13 µM.

Question: What about the Kd [4] of the same compound?
Answer: The Kd was 4.52 µM.
